# Reference: US20240150377A1, “MODULATORS OF CYSTIC FIBROSIS TRANSMEMBRANE CONDUCTANCE REGULATOR” (VERTEX PHARMACEUTICALS INCORPORATED, priority 2020, published 2024)
# pEC50: −log10 of the molar value. Where two headings read alike, the source gives them in different places.
# Biological target: CFTR (Homo sapiens, UniProt P13569)
# Test: Membrane potential dye, Enteroid Assay A
# Type: cell-based
# Conditions: for Ent. A Max Activity: chloride transport as % of triple combination control (Enteroid Assay A); for pEC50: human enteroid cells, 18-24 hours, acute 10 μM forskolin and 300 nM ivacaftor, read-out: Ent. A EC50
# Procedure, shortened: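 Human intestinal enteroids incubated 18-24 h at 37 °C with test compound, then loaded with 20 μM methyl oxonol (with CaCC inhibitors). Chloride transport triggered in chloride-free buffer with 10 μM forskolin, 100 μM IBMX, 300 nM Compound III; fluorescence read 15 min, expressed as % of a triple-combination corrector/potentiator control.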
# CFTR, sequence (P13569 with tags, fused parts or gaps DEL508-508): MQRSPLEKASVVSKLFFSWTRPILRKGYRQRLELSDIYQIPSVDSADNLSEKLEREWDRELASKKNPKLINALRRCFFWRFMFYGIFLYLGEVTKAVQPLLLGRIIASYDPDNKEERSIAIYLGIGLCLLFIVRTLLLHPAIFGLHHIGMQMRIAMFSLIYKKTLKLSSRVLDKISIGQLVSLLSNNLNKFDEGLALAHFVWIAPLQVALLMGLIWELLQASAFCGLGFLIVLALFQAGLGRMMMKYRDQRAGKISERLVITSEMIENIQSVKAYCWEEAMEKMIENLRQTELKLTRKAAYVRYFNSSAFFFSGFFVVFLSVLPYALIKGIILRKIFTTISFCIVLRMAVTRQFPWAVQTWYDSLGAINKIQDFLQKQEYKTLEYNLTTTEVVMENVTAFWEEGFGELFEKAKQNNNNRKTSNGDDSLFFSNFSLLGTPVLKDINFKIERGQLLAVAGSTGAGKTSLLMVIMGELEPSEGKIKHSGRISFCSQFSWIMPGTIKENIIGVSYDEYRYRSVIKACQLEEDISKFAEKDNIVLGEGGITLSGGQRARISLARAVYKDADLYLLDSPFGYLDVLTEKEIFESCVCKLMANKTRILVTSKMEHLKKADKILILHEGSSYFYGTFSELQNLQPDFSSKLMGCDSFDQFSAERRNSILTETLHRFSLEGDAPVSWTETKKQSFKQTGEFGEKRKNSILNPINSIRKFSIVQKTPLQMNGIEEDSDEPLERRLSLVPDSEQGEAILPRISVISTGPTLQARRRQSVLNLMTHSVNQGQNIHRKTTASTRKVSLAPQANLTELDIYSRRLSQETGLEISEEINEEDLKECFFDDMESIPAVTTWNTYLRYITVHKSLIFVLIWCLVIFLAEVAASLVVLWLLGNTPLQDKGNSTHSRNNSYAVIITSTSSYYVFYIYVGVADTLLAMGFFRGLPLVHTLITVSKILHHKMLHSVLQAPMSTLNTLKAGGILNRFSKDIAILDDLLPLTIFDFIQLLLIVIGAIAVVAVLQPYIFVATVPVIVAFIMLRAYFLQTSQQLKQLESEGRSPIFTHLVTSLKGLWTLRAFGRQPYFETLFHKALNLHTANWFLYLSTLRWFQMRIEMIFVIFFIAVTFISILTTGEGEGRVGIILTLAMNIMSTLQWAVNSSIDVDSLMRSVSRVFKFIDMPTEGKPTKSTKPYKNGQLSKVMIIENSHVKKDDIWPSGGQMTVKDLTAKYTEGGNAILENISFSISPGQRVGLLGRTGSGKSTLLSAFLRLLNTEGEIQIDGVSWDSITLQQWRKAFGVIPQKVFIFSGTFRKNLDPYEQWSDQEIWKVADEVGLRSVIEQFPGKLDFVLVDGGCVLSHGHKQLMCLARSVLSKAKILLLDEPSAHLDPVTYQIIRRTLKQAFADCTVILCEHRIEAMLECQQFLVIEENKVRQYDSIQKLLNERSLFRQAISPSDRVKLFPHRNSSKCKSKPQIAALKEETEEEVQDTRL
Structure (SMILES),Ent. A Max Activity (Table 7),pEC50 (Table 7),Ent. A Max Activity (Table 6),pEC50 (Table 6)
Cc1cccc(C)c1-c1cc2nc(n1)NS(=O)(=O)c1cccc(c1)C(=O)N(Cc1ccc(N3CCC(C(F)(F)F)CC3)nc1)[C@H](CC(C)C)CO2 [Compound 969],++ (++ is 30-60%),> 6.00,–,–
COCC1CCN(c2ccc(CN3C(=O)c4cccc(c4)S(=O)(=O)Nc4nc(cc(-c5c(C)cccc5C)n4)OC[C@H]3CC(C)C)cn2)CC1 [Compound 970],++ (++ is 30-60%),> 6.00,–,–
COC1CCN(c2ccc(CN3C(=O)c4cccc(c4)S(=O)(=O)Nc4nc(cc(-c5c(C)cccc5C)n4)OC[C@H]3CC(C)C)cn2)CC1 [Compound 971],+++ (+++ is >60%),> 6.00,–,–
Cc1cccc(C)c1-c1cc2nc(n1)NS(=O)(=O)c1cccc(c1)C(=O)N(Cc1ccc(N3CCC(C#N)CC3)nc1)[C@H](CC(C)C)CO2 [Compound 972],+++ (+++ is >60%),> 6.00,–,–
Cc1cccc(C)c1-c1cc2nc(n1)NS(=O)(=O)c1cccc(c1)C(=O)N(Cc1ccc(N3CCC(F)CC3)nc1)[C@H](CC(C)C)CO2 [Compound 973],+++ (+++ is >60%),> 6.00,–,–
Cc1cccc(C)c1-c1cc2nc(n1)NS(=O)(=O)c1cccc(c1)C(=O)N(Cc1ccc(N3CCOCC3)nc1)[C@H](CC(C)C)CO2 [Compound 976],–,–,+++ (+++ is >60%),> 6.00
Cc1cccc(C)c1-c1cc2nc(n1)NS(=O)(=O)c1cccc(c1)C(=O)N(Cc1ccncc1)CCO2 [Compound 977],–,–,+++ (+++ is >60%),4.52 to 5.52
Cc1cccc(C)c1-c1cc2nc(n1)NS(=O)(=O)c1cccc(c1)C(=O)N(Cc1ccccc1)CCO2 [Compound 978],–,–,+++ (+++ is >60%),> 6.00
Cc1cccc(C)c1-c1cc2nc(n1)NS(=O)(=O)c1cccc(c1)C(=O)N(C)CCO2 [Compound 979],–,–,+ (+ is <30%),–
Cc1cccc(C)c1-c1cc2nc(n1)NS(=O)(=O)c1cccc(c1)C(=O)N(Cc1ccc(C(=O)N(C)C)nc1)[C@H](CC(C)C)CO2 [Compound 981],+++ (+++ is >60%),> 6.00,–,–
Cc1cccc(C)c1-c1cc2nc(n1)NS(=O)(=O)c1cccc(c1)C(=O)N(CCC1CCOCC1)[C@H](CC(F)(F)F)CO2 [Compound 982],++ (++ is 30-60%),5.52 to 6.00,–,–
Cc1cccc(C)c1-c1cc2nc(n1)NS(=O)(=O)c1cccc(c1)C(=O)N(CCC1CCOCC1)[C@H](CC(F)(F)F)CO2 [Compound 983],++ (++ is 30-60%),> 6.00,–,–
Cc1cccc(C)c1-c1cc2nc(n1)NS(=O)(=O)c1cccc(c1)C(=O)N(CCC(C)(C)C)[C@H](CC(F)(F)F)CO2 [Compound 984],++ (++ is 30-60%),5.52 to 6.00,–,–
Cc1cccc(C)c1-c1cc2nc(n1)NS(=O)(=O)c1cccc(c1)C(=O)N(CCC(C)(C)C)[C@H](CC(F)(F)F)CO2 [Compound 985],++ (++ is 30-60%),> 6.00,–,–
COc1ccc(CN2C(=O)c3cccc(c3)S(=O)(=O)Nc3nc(cc(-c4c(C)cccc4C)n3)OC[C@H]2C)cc1 [Compound 986],++ (++ is 30-60%),5.52 to 6.00,–,–
Cc1cccc(C)c1-c1cc2nc(n1)NS(=O)(=O)c1cccc(c1)C(=O)N(CCC(C)(C)C)[C@H](C)CO2 [Compound 987],+ (+ is <30%),> 6.00,–,–
Cc1cccc(C)c1-c1cc2nc(n1)NS(=O)(=O)c1cccc(c1)C(=O)N(CCC1CCOCC1)[C@H](C)CO2 [Compound 988],+ (+ is <30%),4.52 to 5.52,–,–
Cc1cccc(C)c1-c1cc2nc(n1)NS(=O)(=O)c1cccc(c1)C(=O)N(Cc1ccc[nH]c1=O)[C@H](CC(C)C)CO2 [Compound 989],–,–,+++ (+++ is >60%),5.52 to 6.00
CCC(CC)CN1C(=O)c2cccc(c2)S(=O)(=O)Nc2nc(cc(-c3c(C)cccc3C)n2)OC[C@H]1CC(C)C [Compound 990],–,–,+++ (+++ is >60%),> 6.00
Cc1cccc(C)c1-c1cc2nc(n1)NS(=O)(=O)c1cccc(c1)C(=O)N(C)[C@H](CC(C)C)[C@H](C)O2 [Compound 991],–,–,+++ (+++ is >60%),> 6.00
Cc1cccc(C)c1-c1cc2nc(n1)NS(=O)(=O)c1cccc(c1)C(=O)N(C)[C@H](c1ccc(C(C)(C)C)cc1)CO2 [Compound 1010],++ (++ is 30-60%),> 6.00,–,–
Cc1cccc(C)c1-c1cc2nc(n1)NS(=O)(=O)c1cccc(c1)C(=O)N(C)[C@H](c1ccc(C(C)(C)C)cc1)CO2 [Compound 1011],+++ (+++ is >60%),> 6.00,–,–
C=CC1CN(CCC(C)C)C(=O)c2cccc(c2)S(=O)(=O)Nc2nc(cc(-c3c(C)cccc3C)n2)O1 (stereo not drawn) [Compound 1012],–,–,++ (++ is 30-60%),> 6.00
Cc1cccc(C)c1-c1cc2nc(n1)NS(=O)(=O)c1cccc(c1)C(=O)N(C)CC(CN(C)CCC(C)(C)C)O2 (stereo not drawn) [Compound 1014],–,–,+++ (+++ is >60%),4.52 to 5.52

Structure (SMILES),Ent. A Max Activity (Table 7),pEC50 (Table 7),Ent. A Max Activity (Table 6),pEC50 (Table 6)
Cc1cccc(C)c1-c1cc2nc(n1)NS(=O)(=O)c1cccc(c1)C(=O)N(C)CC(CN1C3CCC[C@H]1CC3)O2 (stereo partly drawn) [Compound 1015],–,–,+ (+ is <30%),–
CNCCNCC1CN(C)C(=O)c2cccc(c2)S(=O)(=O)Nc2nc(cc(-c3c(C)cccc3C)n2)O1 (stereo not drawn) [Compound 1016],–,–,+ (+ is <30%),–
Cc1cccc(C)c1-c1cc2nc(n1)NS(=O)(=O)c1cccc(c1)C(=O)N(C)C[C@H](CNCCC(C)(C)C)O2 [Compound 1017],–,–,+ (+ is <30%),–
Cc1cccc(C)c1-c1cc2nc(n1)NS(=O)(=O)c1cccc(c1)C(=O)N(C)C[C@@H](CNCCC(C)(C)C)O2 [Compound 1018],–,–,+ (+ is <30%),–
Cc1cccc(C)c1-c1cc2nc(n1)NS(=O)(=O)c1cccc(c1)C(=O)N(C)CC(CNCCC(C)(C)C)O2 (stereo not drawn) [Compound 1019],–,–,+ (+ is <30%),–
Cc1cccc(C)c1-c1cc2nc(n1)NS(=O)(=O)c1cccc(c1)CN(CCC(C)CC(C)(C)C)[C@H](CC(C)C)CO2 (stereo partly drawn) [Compound 1022],++ (++ is 30-60%),> 6.00,–,–
CC(=O)N1Cc2cccc(c2)S(=O)(=O)Nc2nc(cc(-c3c(C)cccc3C)n2)OC[C@H]1CC(C)C [Compound 1025],+ (+ is <30%),–,–,–
Cc1cccc(C)c1-c1cc2nc(n1)NS(=O)(=O)c1cccc(c1)CN(Cc1cc(C)c3[nH]ncc3c1)[C@H](CC(C)C)CO2 [Compound 1027],+++ (+++ is >60%),> 6.00,–,–
Cc1cccc(C)c1-c1cc2nc(n1)NS(=O)(=O)c1cccc(c1)CN(Cc1cccnc1OCC1CC1)[C@H](CC(C)C)CO2 [Compound 1028],+++ (+++ is >60%),> 6.00,–,–
Cc1cccc(C)c1-c1cc2nc(n1)NS(=O)(=O)c1cccc(c1)CN(Cc1ccc(Oc3ccccc3)cc1)[C@H](CC(C)C)CO2 [Compound 1030],++ (++ is 30-60%),> 6.00,–,–
COc1ccc(CN2Cc3cccc(c3)S(=O)(=O)Nc3nc(cc(-c4c(C)cccc4C)n3)OC[C@H]2CC(C)C)cc1C(F)(F)F [Compound 1031],++ (++ is 30-60%),> 6.00,–,–
Cc1cccc(C)c1-c1cc2nc(n1)NS(=O)(=O)c1cccc(c1)CN(Cc1ccc3c(c1)OC(F)(F)O3)[C@H](CC(C)C)CO2 [Compound 1032],++ (++ is 30-60%),> 6.00,–,–
Cc1cccc(C)c1-c1cc2nc(n1)NS(=O)(=O)c1cccc(c1)CN(Cc1cnc(C3CCCCC3)nc1)[C@H](CC(C)C)CO2 [Compound 1033],++ (++ is 30-60%),> 6.00,–,–
Cc1cccc(C)c1-c1cc2nc(n1)NS(=O)(=O)c1cccc(c1)CN(Cc1ccccc1-c1ccccc1)[C@H](CC(C)C)CO2 [Compound 1034],++ (++ is 30-60%),> 6.00,–,–
CCc1nccc(CN2Cc3cccc(c3)S(=O)(=O)Nc3nc(cc(-c4c(C)cccc4C)n3)OC[C@H]2CC(C)C)n1 [Compound 1035],++ (++ is 30-60%),> 6.00,–,–
Cc1cccc(C)c1-c1cc2nc(n1)NS(=O)(=O)c1cccc(c1)CN(Cc1ccccc1OC(C)C)[C@H](CC(C)C)CO2 [Compound 1036],++ (++ is 30-60%),> 6.00,–,–
Cc1cccc(C)c1-c1cc2nc(n1)NS(=O)(=O)c1cccc(c1)CN(Cc1ccccc1OCc1ccccc1)[C@H](CC(C)C)CO2 [Compound 1037],++ (++ is 30-60%),> 6.00,–,–
CCOc1cc(CN2Cc3cccc(c3)S(=O)(=O)Nc3nc(cc(-c4c(C)cccc4C)n3)OC[C@H]2CC(C)C)ccc1OC [Compound 1038],++ (++ is 30-60%),> 6.00,–,–
Cc1cccc(C)c1-c1cc2nc(n1)NS(=O)(=O)c1cccc(c1)CN(CCn1c(=O)oc3ccccc31)[C@H](CC(C)C)CO2 [Compound 1039],++ (++ is 30-60%),> 6.00,–,–
Cc1cccc(C)c1-c1cc2nc(n1)NS(=O)(=O)c1cccc(c1)CN(CCc1ccccc1)[C@H](CC(C)C)CO2 [Compound 1040],++ (++ is 30-60%),> 6.00,–,–
Cc1cccc(C)c1-c1cc2nc(n1)NS(=O)(=O)c1cccc(c1)CN(CC1CCOCC1)[C@H](CC(C)C)CO2 [Compound 1041],+++ (+++ is >60%),> 6.00,–,–
COCCN1Cc2cccc(c2)S(=O)(=O)Nc2nc(cc(-c3c(C)cccc3C)n2)OC[C@H]1CC(C)C [Compound 1042],+ +,> 6.00,–,–
Cc1cccc(C)c1-c1cc2nc(n1)NS(=O)(=O)c1cccc(c1)CN(Cc1ccccc1)[C@H](CC(C)C)CO2 [Compound 1044],–,–,++ (++ is 30-60%),> 6.00
